{"source": "patent US20260224547A1", "about": "“COMPOSITIONS COMPRISING ANATABINE AND USES THEREOF” (Philip Morris Products S.A., priority 2021, published 2026)", "system": "HEK-293, SH-SY5Y, primary human keratinocytes, THP-1 differentiated with PMA", "assay": "Transcriptomics (microarray) after anatabine treatment of 4 cell systems", "format": "cell-based", "experimental": "To investigate the signalling pathways triggered by anatabine, 4 cell systems (HEK-293, SH-SY5Y, primary human keratinocytes, THP-1 differentiated with PMA) were treated with 4 concentrations of anatabine (100, 200, 300, 400 μM) for 6 hours, after which transcriptomics measurements were performed.\nHEK-293 is a human embryonic kidney cell line devoid of nicotinic receptors. It can be relatively easily transfected and therefore used as a tool to express various subtypes of nicotinic receptors or reporter genes such as NRF2-driven luciferase, which were also used in this study. HEK-293 were seeded in a cell culture medium consisting of EMEM, 10% FBS, 1% NEAA, 1% Sodium Pyruvate and 1% PenStrep. 60,000 cells were seeded per well of a 96-well plate.\nSH-SY5Y is a human bone marrow neuroblastoma cell line that has been used by researchers to investigate the potential anti-inflammatory effect of anatabine. SH-SY5Y were seeded in a cell culture medium consisting of 50% EMEM and 50% Ham's F12 nutrient and including 10% FBS, 1% PenStrep and 1% L-glutamine. 15,000 cells were seeded per well of a 96-well plate.\nPrimary human keratinocytes have been included as a relevant cell system for skin. The batch of keratinocytes was selected in order to have healthy, non-smoker, 20-60 years old, Caucasian donors. The keratinocytes were seeded in a cell culture medium consisting of KGM-Gold Keratinocyte Growth Medium. 17,500 cells were seeded per well of a 96-well plate.\nThe human leukaemia-derived monocytic cell line THP-1, is the most widely used in vitro model for primary human macrophage investigations. THP-1 cells were seeded in a cell culture medium consisting of RPMI, 10% FBS and 1% PenStrep and in the presence of 40 ng/ml phorbol 12-myristate 13-acetate (PMA). 100,000 cells were seeded per well of a 96-well plate, having a total volume of […] per well. 48 hours later the medium was changed to the same culture medium but without PMA, and the culture was left to rest for 24 h before treatment.\nAll four cell systems were seeded in 96 well plates at a total volume of 190 μl per well to allow for a 20× compound stimulation with a volume of 10 μL. 24 hours after seeding—or in the case of THP-1, 24 h after changing to non-PMA medium—four cell systems were stimulated with anatabine (prepared at 20× the corresponding target concentration) to obtain a final molar concentration of 100, 200, 300, 400 μM anatabine.\nIn order to generate the transcriptomics data, the four cell systems were exposed to various concentrations of anatabine (100, 200, 300, 400 μM) for 6 hours. The transcriptome of the cells was analysed by a microarray-based analysis.\nThe cells were lysed using RLT BUFFER (Qiagen Hilden, Germany) for all cell types except the keratinocytes which were lysed with QIAZOL LYSIS REAGENT (Qiagen). RNA isolation was performed with RNEASY MICRO KIT (Qiagen). RNA quantification was assessed with a NANODROP 1000 (ThermoFisher Waltham, MA, USA) and quality of the total RNA was verified acquiring a profile with a 2100 BIOANALYZER (Agilent Technologies, Santa Clara, CA, USA), requiring an RIN number greater than 6.0. 50 ng of total RNA were processed as described in the TECAN/NUGEN OVATION RNA AMPLIFICATION SYSTEM V2 (Tecan Mannedorf, Switzerland). Human Genome U133 Plus 2.0 array were used for hybridization on a THERMOFISHER OVEN 645, washed on THERMOFISHER GENECHIP™ FLUIDICS STATIONS 450DX (protocol FS450-0004) and scanned on a THERMOFISHER GENECHIP™ SCANNER 3000 7G.\nQuality control check of all chips was done with the BIOCONDUCTOR affyPLM R package version 1.64. Following quality control procedures, differential gene expression analysis was performed using the BIOCONDUCTOR LIMMA R package version 3.44.3. Pairwise comparisons at the gene level, called systems response profiles (SRP), were computed by comparing each concentration-treatment with its respective vehicle control. […]"}
{"compound": "C1=CCC(c2cccnc2)NC1", "note": "(racemic) [anatabine, 1,2,3,6-Tetrahydro-2,3′-bipyridine]", "values": [{"measurement": "Fold Change", "setting": "ATF3 gene, KEAT, anatabine 100 μM", "result": 0.2106}, {"measurement": "Fold Change", "setting": "ATF3 gene, KEAT, anatabine 200 μM", "result": 0.3169}, {"measurement": "Fold Change", "setting": "ATF3 gene, KEAT, anatabine 300 μM", "result": 1.893}, {"measurement": "Fold Change", "setting": "ATF3 gene, KEAT, anatabine 400 μM", "result": 1.185}, {"measurement": "Fold Change", "setting": "ATF3 gene, SHSY5Y, anatabine 100 μM", "result": 0.04701}, {"measurement": "Fold Change", "setting": "ATF3 gene, SHSY5Y, anatabine 200 μM", "result": 0.3038}, {"measurement": "Fold Change", "setting": "ATF3 gene, SHSY5Y, anatabine 300 μM", "result": 0.6207}, {"measurement": "Fold Change", "setting": "ATF3 gene, SHSY5Y, anatabine 400 μM", "result": 1.206}, {"measurement": "Fold Change", "setting": "ATF3 gene, THP1, anatabine 100 μM", "result": "−0.02648"}, {"measurement": "Fold Change", "setting": "EEF2K gene, THP1, anatabine 300 μM", "result": "−0.3419"}, {"measurement": "Fold Change", "setting": "EEF2K gene, THP1, anatabine 400 μM", "result": "−0.7245"}, {"measurement": "Fold Change", "setting": "EID3 gene, HEK293, anatabine 100 μM", "result": 0.1833}, {"measurement": "Fold Change", "setting": "EID3 gene, HEK293, anatabine 200 μM", "result": 0.5345}, {"measurement": "Fold Change", "setting": "EID3 gene, HEK293, anatabine 300 μM", "result": 0.9247}, {"measurement": "Fold Change", "setting": "EID3 gene, HEK293, anatabine 400 μM", "result": 0.9528}, {"measurement": "Fold Change", "setting": "EID3 gene, KEAT, anatabine 100 μM", "result": 1.694}, {"measurement": "Fold Change", "setting": "EID3 gene, KEAT, anatabine 200 μM", "result": 1.995}, {"measurement": "Fold Change", "setting": "EID3 gene, KEAT, anatabine 300 μM", "result": 3.641}, {"measurement": "Fold Change", "setting": "EID3 gene, KEAT, anatabine 400 μM", "result": 3.12}, {"measurement": "Fold Change", "setting": "EID3 gene, SHSY5Y, anatabine 100 μM", "result": 0.2913}, {"measurement": "Fold Change", "setting": "EID3 gene, SHSY5Y, anatabine 200 μM", "result": 0.3156}, {"measurement": "Fold Change", "setting": "EID3 gene, SHSY5Y, anatabine 300 μM", "result": 0.6868}, {"measurement": "Fold Change", "setting": "EID3 gene, SHSY5Y, anatabine 400 μM", "result": 1.05}, {"measurement": "Fold Change", "setting": "EID3 gene, THP1, anatabine 100 μM", "result": 0.1121}, {"measurement": "Fold Change", "setting": "EID3 gene, THP1, anatabine 200 μM", "result": 0.4679}, {"measurement": "Fold Change", "setting": "EID3 gene, THP1, anatabine 300 μM", "result": 0.5698}, {"measurement": "Fold Change", "setting": "EID3 gene, THP1, anatabine 400 μM", "result": 1.615}, {"measurement": "Fold Change", "setting": "FAM53C gene, HEK293, anatabine 100 μM", "result": 0.3792}, {"measurement": "Fold Change", "setting": "FAM53C gene, HEK293, anatabine 200 μM", "result": 0.423}, {"measurement": "Fold Change", "setting": "FAM53C gene, HEK293, anatabine 300 μM", "result": 0.6969}, {"measurement": "Fold Change", "setting": "FAM53C gene, HEK293, anatabine 400 μM", "result": 0.7367}, {"measurement": "Fold Change", "setting": "FAM53C gene, KEAT, anatabine 100 μM", "result": 0.1269}, {"measurement": "Fold Change", "setting": "FAM53C gene, KEAT, anatabine 200 μM", "result": 0.2194}, {"measurement": "Fold Change", "setting": "FAM53C gene, KEAT, anatabine 300 μM", "result": 1.067}, {"measurement": "Fold Change", "setting": "FAM53C gene, KEAT, anatabine 400 μM", "result": 0.6853}, {"measurement": "Fold Change", "setting": "FAM53C gene, SHSY5Y, anatabine 100 μM", "result": 0.1212}, {"measurement": "Fold Change", "setting": "FAM53C gene, SHSY5Y, anatabine 200 μM", "result": 0.4283}, {"measurement": "Fold Change", "setting": "FAM53C gene, SHSY5Y, anatabine 300 μM", "result": 0.5427}, {"measurement": "Fold Change", "setting": "FAM53C gene, SHSY5Y, anatabine 400 μM", "result": 0.873}, {"measurement": "Fold Change", "setting": "FAM53C gene, THP1, anatabine 100 μM", "result": 0.144}, {"measurement": "Fold Change", "setting": "FAM53C gene, THP1, anatabine 200 μM", "result": 0.2515}, {"measurement": "Fold Change", "setting": "FAM53C gene, THP1, anatabine 300 μM", "result": 0.6296}, {"measurement": "Fold Change", "setting": "FAM53C gene, THP1, anatabine 400 μM", "result": 0.8729}, {"measurement": "Fold Change", "setting": "FBXO30 gene, HEK293, anatabine 100 μM", "result": 0.001539}, {"measurement": "Fold Change", "setting": "FBXO30 gene, HEK293, anatabine 200 μM", "result": 0.2872}, {"measurement": "Fold Change", "setting": "FBXO30 gene, HEK293, anatabine 300 μM", "result": 0.3586}, {"measurement": "Fold Change", "setting": "FBXO30 gene, HEK293, anatabine 400 μM", "result": 0.5949}, {"measurement": "Fold Change", "setting": "FBXO30 gene, KEAT, anatabine 100 μM", "result": 0.619}, {"measurement": "Fold Change", "setting": "FBXO30 gene, KEAT, anatabine 200 μM", "result": 0.8807}, {"measurement": "Fold Change", "setting": "FBXO30 gene, KEAT, anatabine 300 μM", "result": 1.832}, {"measurement": "Fold Change", "setting": "FBXO30 gene, KEAT, anatabine 400 μM", "result": 1.526}, {"measurement": "Fold Change", "setting": "FBXO30 gene, SHSY5Y, anatabine 100 μM", "result": "−0.5195"}, {"measurement": "Fold Change", "setting": "FBXO30 gene, SHSY5Y, anatabine 200 μM", "result": 0.3153}, {"measurement": "Fold Change", "setting": "FBXO30 gene, SHSY5Y, anatabine 300 μM", "result": 0.5475}, {"measurement": "Fold Change", "setting": "FBXO30 gene, SHSY5Y, anatabine 400 μM", "result": 0.9269}, {"measurement": "Fold Change", "setting": "FBXO30 gene, THP1, anatabine 100 μM", "result": 0.002856}, {"measurement": "Fold Change", "setting": "FBXO30 gene, THP1, anatabine 200 μM", "result": 0.427}, {"measurement": "Fold Change", "setting": "FBXO30 gene, THP1, anatabine 300 μM", "result": 0.6595}, {"measurement": "Fold Change", "setting": "FBXO30 gene, THP1, anatabine 400 μM", "result": 1.224}, {"measurement": "Fold Change", "setting": "G0S2 gene, HEK293, anatabine 100 μM", "result": "−0.159"}, {"measurement": "Fold Change", "setting": "G0S2 gene, HEK293, anatabine 200 μM", "result": "−0.1114"}, {"measurement": "Fold Change", "setting": "G0S2 gene, HEK293, anatabine 300 μM", "result": "−0.6854"}, {"measurement": "Fold Change", "setting": "G0S2 gene, HEK293, anatabine 400 μM", "result": "−0.7292"}, {"measurement": "Fold Change", "setting": "G0S2 gene, KEAT, anatabine 100 μM", "result": "−0.3516"}, {"measurement": "Fold Change", "setting": "G0S2 gene, KEAT, anatabine 200 μM", "result": "−0.5508"}, {"measurement": "Fold Change", "setting": "G0S2 gene, KEAT, anatabine 300 μM", "result": "−1.361"}, {"measurement": "Fold Change", "setting": "G0S2 gene, KEAT, anatabine 400 μM", "result": "−1.016"}, {"measurement": "Fold Change", "setting": "G0S2 gene, SHSY5Y, anatabine 100 μM", "result": "−0.0648"}]}
